# Measured values published in patent publication US6403831B1, “Substituted benzylidene indenyl formamides, acetamides and propionamides” (Cell Pathways, Inc., priority 1996, dated 2002).
# System: human colon carcinoma cell line, SW-480
# Assay: Growth inhibition, Sulforhodamine B (SRB) protein binding assay
# Format: cell-based
# Conditions: SW-480 cell line, six days continuous exposure
# Procedure: These compounds were assayed for their growth inhibitory activity on the human colon carcinoma cell line, SW-480 obtained from ATCC (Rockville, Md.), to ascertain the degree of growth inhibition. Growth inhibition of this cell line is indicative of a benefit on precancerous lesions and neoplasms. The cell line and growth assay employed for these experiments are well characterized, and are used to evaluate the anti-neoplastic properties of NSAIDs. The assay is used by the United States National Cancer Institute in its screening program for new anti-cancer drugs.
# Drug stock solutions were made in 100% DMSO then diluted with RPMI media for cell culture testing. All drug solutions were prepared fresh on the day of testing. The cultured cells were obtained at passage #99 and grown in RPMI media supplemented with 5% fetal calf serum, and 2 mM glutamine, 100 U/ml penicillin, 100 U/ml streptomycin, and 0.25 μg/ml amphotericin. The cultures were maintained in a humidified atmosphere of 95% air and 5% CO2 at 37° C. The cultures were passaged at preconfluent densities using a solution of 0.05% trypsin and 0.53 mM EDTA. Cells were plated at 1000 cells/well for 96 well flat-bottom microtiter plates.
# Tumor cell growth inhibition was assessed using the Sulforhodamine B (SRB) protein binding assay. In this assay, tumor cells were plated in 96-well plates and treated with drug-containing media for six days (continuous exposure). For each plate, 6 wells were designated as no treatment controls, six wells as vehicle (0.1% DMSO) controls, and the remaining wells for drug dilutions with three wells per drug concentration. At the end of the exposure period, the cells were fixed and stained with sulforhodamine B, a protein binding dye. The dye was then solubilized, and the optical density of the resulting solution was determined on a 96-well plate reader. The mean dye intensity of the treated wells was then divided by the mean dye intensity in the control wells (6 wells of each) to determine the effect of the drug on the cells. Dye intensity is proportional to the number of cells or amount of protein per well. The resultant “percent inhibition” value then represents the degree of growth inhibition caused by the drug.
# For each experiment, an IC50 value was determined and used for comparative purposes. This value is equivalent to the concentration of drug needed to inhibit tumor cell growth by 50%. IC50 values were obtained graphically by connecting the mean values for each drug concentration tested. Each experiment included at least three wells per drug concentration. Concentration was plotted on a log scale on the X-axis.
row,Compound,IC50 [nM]
1,"COc1cc(OC)c(/C=C2/C(C)=C(CC(=O)NCc3ccccc3)c3cc(F)ccc32)c(OC)c1 [Example 55, (Z)-5-fluoro-2-methyl-1-(2,4,6-trimethoxybenzylidene)-3-(N-benzyl)-indenylacetamide]",500

# Target: T1, COX I (Ovis aries, UniProt P05979)
# T1 construct: The COX was purified form ram seminal vesicles; from tissue; host or cells: ram seminal vesicles
# T1 sequence (P05979 25-600): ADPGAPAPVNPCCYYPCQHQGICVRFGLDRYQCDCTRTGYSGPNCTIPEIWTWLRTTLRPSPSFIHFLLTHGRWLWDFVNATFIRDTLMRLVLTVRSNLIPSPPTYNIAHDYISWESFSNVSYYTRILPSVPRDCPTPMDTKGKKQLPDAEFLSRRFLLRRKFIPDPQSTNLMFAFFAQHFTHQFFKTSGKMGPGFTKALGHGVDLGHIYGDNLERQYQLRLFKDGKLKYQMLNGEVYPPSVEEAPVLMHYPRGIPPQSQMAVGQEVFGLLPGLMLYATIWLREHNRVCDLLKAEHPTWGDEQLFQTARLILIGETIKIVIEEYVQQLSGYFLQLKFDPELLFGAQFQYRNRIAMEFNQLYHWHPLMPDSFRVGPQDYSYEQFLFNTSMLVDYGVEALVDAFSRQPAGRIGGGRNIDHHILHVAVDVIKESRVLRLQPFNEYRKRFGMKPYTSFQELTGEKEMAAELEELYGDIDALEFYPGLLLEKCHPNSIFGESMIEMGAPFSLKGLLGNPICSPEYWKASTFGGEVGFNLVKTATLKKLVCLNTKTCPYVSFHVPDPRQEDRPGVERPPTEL
# Assay: Cyclooxygenase (COX) inhibition, purified COX
# Format: biochemical
# Conditions: 100 μM test compound; purified COX from ram seminal vesicles, arachidonic acid 100 μM
# Procedure: Compounds of this invention, as well as a positive control, sulindac sulfide were to determine whether they inhibited the production of cyclooxygenase (see Table 5 below).
# COX catalyzes the formation of prostaglandins and thromboxane by the oxidative metabolism of arachidonic acid. The compounds of this invention were evaluated for inhibitory effects on purified COX. The COX was purified form ram seminal vesicles, as described by Boopathy, R. and Balasubramanian, J. 239:371-377, 1988. COX activity was assayed as described by Evans, A. T., et al., “Actions of cannabis constituents on enzymes of arachidonate metabolism anti-flammatory potential,” Biochem. Pharmacol., 36:2035-2037, 1987. Briefly, purified COX was incubated with arachidonic acid (100 μM) for 2.0 min at 37° C. in the presence or absence of test compounds. The assay was terminated buy the addition of TCA, and COX activity was determined by absorbance at 530 nm.
row,Compound,COX I % Inhibition (100 μM) [%]
1,"COc1cc(/C=C2/C(C)=C(CC(=O)NCc3cccc(F)c3)c3cc(F)ccc32)cc(OC)c1OC [Example 7, (Z)-5-fluoro-2-methyl-1-(3,4,5-trimethoxybenzylidene)-3-(N-3-fluorobenzyl)-indenylacetamide]",<25
2,COc1cc(/C=C2/C(C)=C(CC(=O)NCc3ccncc3)c3cc(F)ccc32)cc(OC)c1OC [Example 50],29.2
3,"COc1cc(/C=C2/C(C)=C(CC(=O)NCc3cc(F)cc(C(F)(F)F)c3)c3cc(F)ccc32)cc(OC)c1OC [Example 11, (Z)-5-fluoro-2-methyl-1-(3,4,5-trimethoxybenzylidene)-3-(N-3-fluoro-5-(trifluoromethyl)-benzyl)-indenylacetamide]",<25
4,"CCN(CC)C(=O)CC1=C(C)/C(=C/c2cc(OC)c(OC)c(OC)c2)c2ccc(F)cc21 [Example 24, (Z)-5-fluoro-2-methyl-1-(3,4,5 trimethoxybenzylidene)-3-(N,N-diethyl)-indenylacetamide]",<25
5,"COc1cc(/C=C2/C(C)=C(CC(=O)NCc3ccc(S(N)(=O)=O)cc3)c3cc(F)ccc32)cc(OC)c1OC [Example 20, (Z)-5-fluoro-2-methyl-1-(3,4,5-trimethoxybenzylidene)-3-(N-4-sulfonamidobenzyl)-indenylacetamide]",36.5
6,"COc1cc(/C=C2/C(C)=C(CC(=O)NCc3ccc(F)cc3F)c3cc(F)ccc32)cc(OC)c1OC [Example 6, (Z)-5-fluoro-2-methyl-1-(3,4,5-trimethoxybenzylidene)-3-(N-2,4-difluorobenzyl)-indenylacetamide]",<25
7,"COc1ccc(CNC(=O)CC2=C(C)/C(=C/c3cc(OC)c(OC)c(OC)c3)c3ccc(F)cc32)cc1 [Example 14, (Z)-5-fluoro-2-methyl-1-(3,4,5-trimethoxybenzylidene)-3-(N-4-methoxybenzyl)-indenylacetamide]",<25
8,"COc1cc(/C=C2/C(C)=C(CC(=O)N(C3CCCCC3)C3CCCCC3)c3cc(F)ccc32)cc(OC)c1OC [Example 26, (Z)-5-fluoro-2-methyl-1-(3,4,5-trimethoxybenzylidene)-3-(N,N-dicyc1ohexyl)-indenylacetamide]",28.1
9,"COc1cc(/C=C2/C(C)=C(CC(=O)NCc3ccc(Cl)c(Cl)c3)c3cc(F)ccc32)cc(OC)c1OC [Example 5, (Z)-5-fluoro-2-methyl-1-(3,4,5-trimethoxybenzylidene)-3-(N-3,4-dichlorobenzyl)-indenylacetamide]",<25
10,"COc1cc(/C=C2/C(C)=C(CC(=O)NC(C)(C)C)c3cc(F)ccc32)cc(OC)c1OC [Example 25, (Z)-5-fluoro-2-methyl-1-(3,4,5-trimethoxybenzylidene)-3-(N-tertbutyl)-indenylacetamide]",25
11,"COc1cc(/C=C2/C(C)=C(CC(=O)NCc3ccc(N(C)C)cc3)c3cc(F)ccc32)cc(OC)c1OC [Example 21, (Z)-5-fluoro-2-methyl-1-(3,4,5-trimethoxybenzylidene)-3-(N-4-(dimethylamino)-benzyl)-indenylacetamide]",36.5
12,"COc1cc(/C=C2/C(C)=C(CC(=O)NCc3cccnc3)c3cc(F)ccc32)cc(OC)c1OC [Example 49, (Z)-5 fluoro-2-methyl-1-(3,4,5 trimetboxybenzylidene)-3-(N-3-pyridinyl)-idenylacetamide]",25
13,COc1cc(/C=C2/C(C)=C(CC(=O)NCc3cccc(Cl)c3)c3cc(F)ccc32)cc(OC)c1OC [Example 3],<35
14,"COc1cc(CNC(=O)CC2=C(C)/C(=C/c3cc(OC)c(OC)c(OC)c3)c3ccc(F)cc32)cc(OC)c1 [Example 16, (Z)-5-fluoro-2-methyl-1-(3,4,5-trimethoxybenzylidene)-3-(N-3,5-dimethoxybenzyl)-indenylacetamide]",<25
15,"COc1cc(/C=C2/C(C)=C(CC(=O)NCc3ccco3)c3cc(F)ccc32)cc(OC)c1OC [Example 29, (Z)-5-fluoro-2-methyl-1-(3,4,5-trimethoxybenzylidene)-3-(N-furfuryl)-indenylacetamide]",<25
16,"COc1cc(/C=C2/C(C)=C(CC(=O)NCC3CC3)c3cc(F)ccc32)cc(OC)c1OC [Example 30, (Z)-5-fluoro-2-methyl-1-(3,4,5-trimethoxybenzylidene)-3-(N-cyclopropylmethyl)-indenylacetamide]",<25
17,"COc1cc(/C=C2/C(C)=C(CC(=O)NCc3cccc(I)c3)c3cc(F)ccc32)cc(OC)c1OC [Example 2, (Z)-5-fluoro-2-methyl-1-(3,4,5-trimethoxybenzylidene)-3-(N-3-iodobenzyl)-indenylacetamide]",<25
18,"COc1cccc(CNC(=O)CC2=C(C)/C(=C/c3cc(OC)c(OC)c(OC)c3)c3ccc(F)cc32)c1OC [Example 18, (Z)-5 fluoro-2-methyl-1-(3,4,5-trimethoxybenzylidene)-3-(N-2,3-dimethoxybenzyl)-indenylacetamide]",<25
19,"COc1cc(/C=C2/C(C)=C(CC(=O)NCc3ccc(F)c(F)c3)c3cc(F)ccc32)cc(OC)c1OC [Example 9, (Z)-5-fluoro-2-methyl-1-(3,4,5-trimethoxybenzylidene)-3-(N-3,4-difluorobenzyl)-indenylacetamide]",<25
20,"COc1cc(/C=C2/C(C)=C(CC(=O)NCc3c(F)cccc3F)c3cc(F)ccc32)cc(OC)c1OC [Example 10, (Z)-5-fluoro-2-methyl-1-(3,4,5-trimethoxybenzylidene)-3-(N-2,6-difluorobenzyl)-indenylacetamide]",<25
21,"COc1cc(OC)c(/C=C2/C(C)=C(CC(=O)NCc3ccccc3)c3cc(F)ccc32)c(OC)c1 [Example 55, (Z)-5-fluoro-2-methyl-1-(2,4,6-trimethoxybenzylidene)-3-(N-benzyl)-indenylacetamide]",<25
22,"COc1ccc(CNC(=O)CC2=C(C)/C(=C/c3cc(OC)c(OC)c(OC)c3)c3ccc(F)cc32)cc1OC [Example 17, (Z)-5-fluoro-2-methyl-1-(3,4,5-trimethoxybenzylidene)-3-(N-3,4-dimethoxybenzyl)-indenylacetamide]",<25
23,"COc1cc(/C=C2\C(C)=C(CC(=O)NCc3ccccc3)c3cc(F)ccc32)cc(OC)c1OC [Example 52, (E)-5-Fluoro-2-methyl-1-(3,4,5-trimethoxybenzylidene)-3-(N-benzyl)-indenylacetamide]",<25
